{"source": "patent US8865672B2", "about": "“Prevention of tissue ischemia and related methods” (The United States of America, as represented by the …, priority 2006, dated 2014)", "key": {"HAVSMC [1]": {"system": "HAVSMC", "assay": "3D collagen matrix contraction assay, human aortic VSMC", "assay_type": "cell-based", "settings": "HAVSMC, 10% FCS or 100 nM S1P", "description": "Type I collagen gel (3 mg/ml) with 10×M199 (Gibco, Grand Island, N.Y.) at a 10:1 ratio of collagen to medium was prepared, pH balanced with NaOH and seeded with either HAVSMC or VSMC harvested from aortic segments from C57B16 WT or TSP1 null mice (50,000 cells in 75 μl of gel/well) and aliquoted to 96-well plates (Nunc, Denmark). Plates were incubated for 12 h 37° C. and 5% CO2 allowing for gelation and cell spreading, gently released from the well walls and incubated in serum and additive deficient growth medium with 0.1% BSA in the presence of the indicated treatment agents for 10 h. Contraction was determined by measuring the diameter in perpendicular planes (x, y) of each disk, an average obtained and surface area calculated as (d/2)^2π. Experiments were performed in triplicate. Results represent the mean±SD of at least three separate experiments.\nHuman aortic VSMC were plated onto 12-well culture plates (Nunc) at a density of 5×10^4 cells/well in SM-GM+2% FCS and cultured until approximately 90% confluent. A translation-blocking antisense morpholino oligonucleotide complementary to human and murine CD47 ([…]; SEQ ID NO: 21) and a five-base mismatch control (CGTgACAGcCAcGACCgACTGCgCA; SEQ ID NO: 22) were obtained from GeneTools (Philomath, Oreg.). Cultured cells were treated as per the manufacturer's recommendation with morpholinos (10 μM) and utilized within 48 hours of treatment."}, "HAVSMC [2]": {"system": "HAVSMC", "assay": "Actin cytoskeleton staining (F-actin) in HAVSMC", "assay_type": "cell-based, human", "description": "VSMC were grown on glass well slides (Lab-Tek, Nunc) under standard growth conditions. Cells were incubated at 37° C. for 1 hour in serum and additive deficient growth medium and the indicated treatment agents, after which the media was removed and the cells were fixed in 4% paraformaldehyde in PBS (pH 7.4, Fisher Scientific) for 15 minutes at room temperature. After washing with DPBS, cells were permeabilized for 5 minutes in 0.1% Triton X-100 in PBS and then blocked in M199E/2% BSA for 30 min at room temperature. Cells were stained for F-actin with 1 unit/200 μl medium/1% BSA of Oregon Green 488 phalloidin (Molecular Probes). Slides were imaged using an Olympus IX70 microscope and photographed at constant exposure and gain. In other experiments VSMC were plated on 24-well culture plates (Nunc, Denmark) in smooth muscle growth medium (50,000 cells/well) and weaned from serum and additives over 24 hours. Cell treatment was performed with the indicated agents in plain medium with 0.1% BSA for 5 minutes. Wells were processed as described above. Following staining with phalloidin cells were incubated in methanol for 30 minutes, samples aliquoted to 96-well black plates and fluorescence read at 520 nm (excitation 495 nm). Data was normalized to total protein. Results represent the mean±SD of at least three separate experiments."}, "[3]": {"system": "murine ASMC (WT, CD36 null, CD47 null)", "assay": "Intracellular cGMP in murine ASMC", "assay_type": "cell-based, mouse", "description": "Murine ASMC were obtained from aortic segments harvested sterilely from C57B1/6 CD47 null or CD36 null mice as described (Ray et al., Methods Cell Sci 23:185-188, 2001) and cultured in SM-GM (Cambrex)+20% FCS. In the case of CD36 null cells, culture flasks were pre-coated with 1% gelatin prior to cell plating. Wild type C57B1/6 ASMC cultures were prepared as previously described (Isenberg et al., Matrix Biol 24:110-123, 2005). Cell culture purity was determined by immunohistochemistry staining for α-smooth muscle actin. Cells were used within passage 1 to 4 to minimize overgrowth of other cell types.\nHUVEC (10^4 cells/well) grown overnight in 96-well culture plates containing full growth medium with 2% FCS and weaned in growth medium without additives and 1% FCS over 24 hrs before treatment with NO donors and other agents in SM-GM without additives+0.1% BSA. Intracellular cGMP levels were determined according to the manufacturer's instructions using an enzyme immunoassay kit (Amersham Biosciences). In other experiments ASMC from wild type and CD36 or CD47 null mice were plated onto 96-well culture plates and incubated overnight in full growth medium. They were then weaned off serum as described to SM-GM+0.1% BSA and treated with NO donor and other agents as indicated. Intracellular cyclic nucleotides were determined via immunoassay."}, "HUVEC": {"system": "HUVEC", "assay": "NO-stimulated HUVEC adhesion on type I collagen", "assay_type": "cell-based, human", "settings": "DEA/NO 10 μM, 1 h", "description": "Cell adhesion was carried out in 96-well culture plates. After pre-coating wells with type I collagen (3 μg/ml in DPBS) harvested cells were plated at a density of 1×10^4 cells/well in medium plus 0.1% BSA and treatment agents and incubated in 5% CO2 for 1 h. Wells were washed with PBS and cells fixed with 1% glutaraldehyde for 10 min., washed and stained with 1% crystal violet for 20 min. Excess stain was rinsed away, adherent cells treated with 10% acetic acid, and plates read at 570 nm."}, "human platelets [4]": {"system": "human platelets", "assay": "cGMP in human platelets", "assay_type": "cell-based", "settings": "washed human platelets in Tyrode's buffer", "description": "Fresh human platelets at 2×10^5 platelets/μl in Tyrode's buffer or PRP were pre-incubated with the indicated agents for 15 minutes and then challenged with DEA/NO for the indicated time interval at room temperature and total cGMP determined via immunoassay (Amersham, GE Healthcare, Buckinghamshire, UK). Murine WT and TSP1-null platelets were treated with DEA/NO and cGMP flux measured."}, "human platelets [5]": {"system": "human platelets", "assay": "Thrombin-induced human platelet aggregation", "assay_type": "cell-based", "settings": "high shear, thrombin 0.2 U/ml, DEA/NO 10 μM", "description": "Platelets were pelleted from platelet-rich plasma (PRP) by centrifugation for 10 minutes at 200 g. They were then washed with acid citrate dextrose (ACD) (85 mM citric acid, 65 mM sodium citrate, 100 mM glucose, pH 5.1) at a ratio of 1:7 at room temperature. After pelleting the platelets again and removing the supernatant, the platelets were resuspended in 5 mL of Tyrode's buffer (137 mM NaCl, 3 mM KCl, 12 mM NaHCO3, 0.3 mM NaHPO4, 2 mM CaCl2, 1 mM MgCl2, 5.5 mM glucose, 5 mM HEPES, 3.5 mg/mL BSA, pH 7.4). The final platelet number was adjusted to […] in 500 μl/cuvette of Tyrode's buffer.\nAggregation of human platelets under high shear conditions was assessed using a standard optical aggregometer (Lumi-Dual Aggregometer, Chrono-Log Corp., Havertown, Pa.) at 37° C. and 1200 rpm in a volume of 500 μl buffer with a final platelet concentration of 2×10^5 platelets/μl over a 5 minute interval. Pre-incubation with TSP1 and TSP1-based agents was for 15 minutes prior to addition of thrombin and/or the rapidly releasing nitric oxide donor DEA/NO. In some experiments platelets were pre-incubated with the Rap1 inhibitor GGTI-298 (10 μM) (Calbiochem, La Jolla, Calif.) for 30 minutes prior to initiating aggregation. In other high shear aggregation experiments murine platelets were prepared as above with the following modifications. Mouse blood was collected by retro-orbital bleeding of anesthetized mice using heparinized tubes. PRP was prepared and then diluted with 4 vol. of Tyrodes containing 5 mM EDTA to prevent activation. After collection by centrifugation, platelets were resuspended in 2× initial PRP volume and held at room temperature for less than 1 hour before use. Aggregation conditions consisted of 250 μL of washed platelets stirred at 1200 rpm in a Chronolog Optical aggregometer at 37° C. DEA/NO (10 μM) was added 30 seconds prior to activation and 8-BrcGMP added 15 min prior to activation with 0.2 U/ml human thrombin. Data was collected using Chronolog “Aggrolink” software. Platelet aggregation under static conditions was assessed using a spectrophotometer (Beckman DU 640, Beckman Coulter, Fullerton, Calif.) and determined as a change in absorbance at 400 nm with continuous observation over a five minute interval. The cuvette was inverted once every 60 seconds. Pre-incubation with TSP1 and TSP1-based agents was for 15 minutes prior to addition of thrombin and/or DEA/NO to minimize the formation of thrombin-serpinthrombospondin complexes (Chang & Detwiler, Arch Biochem Biophys. 299:100-104, 1992), which interfere with thrombin-platelet interactions.\nFresh human platelets were suspended in Tyrode's buffer and under low shear conditions thrombin-stimulated aggregation measured as described. Platelets were then treated with peptide C6d (1 μM)±NO (10 μM DEA/NO) and thrombin and aggregation measure."}, "human platelets [6]": {"system": "human platelets", "assay": "Human platelet adhesion assay", "assay_type": "cell-based", "settings": "fibrinogen or collagen, DEA/NO 10 μM", "description": "Bacteriological Petri dishes (35×10 mm, Becton Dickinson Labware) were pre-coated with collagen (3 μg/ml) or fibrinogen (15 μg/mL) overnight. Following aspiration of non-adherent matrix, dishes were blocked with 1% BSA. Fresh platelets were washed and suspended in Tyrode's buffer and allowed to adhere for 30 minutes. Plates were washed with PBS, fixed with 0.5% glutaraldehyde and stained with 0.02% toluidine blue. Adherent platelets were counted microscopically. In some experiments platelets were pre-incubated with the Rap1 geranylgeranyltransferase inhibitor GGTI-298 (10 μM) for 30 minutes prior to initiating adhesion."}}, "note": "Square brackets hold non-standard residues; d marks the D form. Ends that are not written are not given here."}
{"compound": "NCCN(CCN)/[N+]([O-])=N/O", "note": "[DETA/NO, diethyltriamine NONOate]", "values": [{"measurement": "collagen gel contraction", "setting": "HAVSMC [1]", "value": "inhibited gel contraction by both agonists"}]}
{"compound": "CCCCCCCCCCCCC/C=C/[C@@H](O)[C@@H](N)COP(=O)(O)O", "note": "[S1P, sphingosine-1-phosphate, reference compound]", "values": [{"measurement": "collagen gel contraction", "setting": "HAVSMC [1]", "value": "significant contraction"}, {"measurement": "F-actin levels", "setting": "HAVSMC [2]; agent alone (TSP1 2.2 nM, S1P 100 nM)", "value": "increased F-actin"}]}
{"compound": "GDGV(D-I)TRIR (GDGV[dI]TRIR) [p907, reference compound]", "values": [{"measurement": "NO-stimulated cGMP", "setting": "[3]; CD36 null MASMC", "value": "partially inhibited"}, {"measurement": "NO-stimulated cGMP", "setting": "[3]; CD47 null MASMC", "value": "did not significantly inhibit"}, {"measurement": "NO-stimulated cGMP", "setting": "[3]; WT MASMC", "value": "slightly inhibited"}, {"measurement": "NO-stimulated cGMP", "setting": "[3]; WT MASMC, listed as 907", "value": "inhibited NO-stimulated cGMP responses in WT"}, {"measurement": "NO-stimulated endothelial cell adhesion on type I collagen", "setting": "HUVEC", "value": "inhibited NO-stimulated endothelial cell adhesion"}, {"measurement": "NO stimulated cGMP in platelets", "setting": "human platelets [4]", "value": "partially inhibited"}, {"measurement": "NO delay of thrombin-induced platelet aggregation", "setting": "human platelets [5]", "value": "accelerated platelet aggregation in the presence of NO"}]}
{"compound": "O=c1onc2cnc3ccccc3n12", "note": "[ODQ, Oxadiazole-[4,3-a]quinoxalin-1-one, reference compound]", "values": [{"measurement": "NO-induced actin disassembly", "setting": "HAVSMC [2]; DEA/NO 10 μM", "value": "inhibition of actin disassembly by NO"}, {"measurement": "decrease in platelet adhesion in response to exogenous NO", "setting": "human platelets [6]", "value": "prevented the decrease in platelet adhesion"}]}
